Measurements: patent publication US7687643B2, “Process for preparing 3,3-dimethylindolines” (Amgen Inc., priority 2001, dated 2010)

Tested on: Human Umbilical Vein Endothelial cells (VEGF-stimulated)
Experiment: HUVEC proliferation assay, VEGF-stimulated
Type: cell-based
Settings: VEGF 50 ng/mL, 72 h, CyQuant, read-out: inhibited VEGF-stimulated HUVEC proliferation at a level
Method: Human Umbilical Vein Endothelial cells are purchased from Clonetics, Inc., as cryopreserved cells harvested from a pool of donors. These cells, at passage 1, are thawed and expanded in EBM-2 complete medium, until passage 2 or 3. The cells are trypsinized, washed in DMEM+10% FBS+antibiotics, and spun at 1000 rpm for 10 min. Prior to centrifugation of the cells, a small amount is collected for a cell count. After centrifugation, the medium is discarded, and the cells are resuspended in the appropriate volume of DMEM+10% FBS+antibiotics to achieve a concentration of 3×10^5 cells/mL. Another cell count is performed to confirm the cell concentration. The cells are diluted to 3×10^4 cells/mL in DMEM+10% FBS+antibiotics, and 100 μL of cells are added to a 96-well plate. The cells are incubated at 37° C. for 22 h.
Prior to the completion of the incubation period, compound dilutions are prepared. Five-point, five-fold serial dilutions are prepared in DMSO, at concentrations 400-fold greater than the final concentrations desired. 2.5 μL of each compound dilution are diluted further in a total of 1 mL DMEM+10% FBS+antibiotics (400× dilution). Medium containing 0.25% DMSO is also prepared for the 0 μM compound sample. At the 22-hour timepoint, the medium is removed from the cells, and 100 μL of each compound dilution is added. The cells are incubated at 37° C. for 2-3 h.
During the compound pre-incubation period, the growth factors are diluted to the appropriate concentrations. Solutions of DMEM+10% FBS+antibiotics, containing either VEGF or bFGF at the following concentrations: 50, 10, 2, 0.4, 0.08, and 0 ng/mL are prepared. For the compound-treated cells, solutions of VEGF at 550 ng/mL or bFGF at 220 ng/mL for 50 ng/mL or 20 ng/mL final concentrations, respectively, are prepared since 10 μL of each will be added to the cells (110 μL final volume). At the appropriate time after adding the compounds, the growth factors are added. VEGF is added to one set of plates, while bFGF is added to another set of plates. For the growth factor control curves, the media on wells B4-G6 of plates 1 and 2 are replaced with media containing VEGF or bFGF at the varying concentrations (50-0 ng/mL). The cells are incubated at 37° C. for an additional 72 h.
At the completion of the 72 h incubation period, the medium is removed, and the cells are washed twice with PBS. After the second wash with PBS, the plates are tapped gently to remove excess PBS, and the cells are placed at −70° C. for at least 30 min. The cells are thawed and analyzed using the CyQuant fluorescent dye (Molecular Probes C-7026), following the manufacturer's recommendations. The plates are read on a Victor/Wallac 1420 workstation at 485 nm/530 nm (excitation/emission). Raw data are collected and analyzed using a 4-parameter fit equation in XLFit. IC50 values are then determined.

Row | SMILES | IC50
1 | O=C(Nc1ccc(-c2ccccc2)cc1)c1cccnc1NCc1ccncc1 [Example 159, N-(4-Biphenyl){2-[(4-pyridylmethyl)amino](3-pyridyl)}carboxamide] | < 0.05 µM
2 | CC(C)c1ccc(NC(=O)c2ccc(F)nc2NCc2ccncc2)cc1 [Example 155, {6-Fluoro-2-[(4-pyridylmethyl)amino](3-pyridyl)}-N-[4-(isopropyl)phenyl]carboxamide] | < 0.05 µM
3 | CC1(C)CN(S(C)(=O)=O)c2cc(NC(=O)c3cccnc3NCc3ccnc(N)c3)ccc21 [Example 1059, 2-(((2-amino-4-pyridinyl)methyl)amino)-N-(3,3-dimethyl-1-(methylsulfonyl)-2,3-dihydro-1H-indol-6-yl)-3-pyridinecarboxamide] | < 0.05 µM
4 | CC1(C)CN(C(=O)c2cc[n+]([O-])cc2)c2cc(NC(=O)c3cccnc3NCc3ccncc3)ccc21 [Example 1100, N-[3,3-Dimethyl-1-(1-oxy-pyridine-4-carbonyl)-2,3-dihydro-1H-indol-6-yl]-2-[(pyridin-4-ylmethyl)-amino]-nicotinamide] | < 0.05 µM
5 | COc1cc(CNc2ncccc2C(=O)Nc2ccc3c(c2)NC(=O)CC3(C)C)ccn1 [Example 1116, N-(4,4-Dimethyl-2-oxo-1,2,3,4-tetrahydro-quinolin-7-yl)-2-[(2-methoxy-pyridin-4-ylmethyl)-amino]-nicotinamide] | < 0.05 µM
6 | O=C(Nc1ccc(C(F)(F)F)c(OCCN2CCCC2)c1)c1cccnc1NCc1ccnc2ccccc12 [Example 1021, N-(3-((2-(1-pyrrolidinyl)ethyl)oxy)-4-(trifluoromethyl)phenyl)-2-((4-quinolinylmethyl)amino)-3-pyridinecarboxamide] | < 0.05 µM
7 | CN(C)CC(=O)N1CC(C)(C)c2ccc(NC(=O)c3cccnc3NCc3ccnc4ccccc34)cc21 [Example 1030, N-(1-(N,N-Dimethylglycyl)-3,3-dimethyl-2,3-dihydro-1H-indol-6-yl)-2-((4-quinolinylmethyl)amino)-3-pyridinecarboxamide] | < 0.05 µM
8 | CC(=O)N1CC(C)(C)Oc2ccc(NC(=O)c3cccnc3NCc3ccncc3)cc21 [Example 943, N-(4-Acetyl-2,2-dimethyl-3,4-dihydro-2H-benzo[1,4]oxazin-6-yl)-2-[(pyridin-4-ylmethyl)-amino]-nicotinamide] | < 0.05 µM
9 | CC1(C)CNc2cc(NC(=O)c3cccnc3NCc3ccncc3)ccc2O1 [Example 995, N-(2,2-Dimethyl-3,4-dihydro-2H-benzo[1,4]oxazin-6-yl)-2-[(pyridin-4-ylmethyl)-amino]-nicotinamide] | < 0.05 µM
10 | CC(C)(C)c1ccc(NC(=O)c2ccc(F)nc2NCc2ccncc2)cc1 [Example 154, N-[4-(tert-Butyl)phenyl]{6-fluoro-2-[(4-pyridylmethyl)amino](3-pyridyl)}carboxamide] | < 0.05 µM
11 | COc1nccc(CNc2ncccc2C(=O)Nc2cc(OC[C@@H]3CCCN3C)cc(C(F)(F)F)c2)n1 [Example 1047, 2-(((2-(methyloxy)-4-pyrimidinyl)methyl)amino)-N-(3-((((2S)-1-methyl-2-pyrrolidinyl)methyl)oxy)-5-(trifluoromethyl)phenyl)-3-pyridinecarboxamide] | < 0.05 µM
12 | CN1CC(C)(C)Oc2ccc(NC(=O)c3cccnc3NCc3ccncc3)cc21 [Example 942, 2-[(Pyridin-4-ylmethyl)-amino]-N-(2,2,4-trimethyl-3,4-dihydro-2H-benzo[1,4]oxazin-6-yl)-nicotinamide] | < 0.05 µM
13 | CS(=O)(=O)NCCOc1cc(NC(=O)c2cccnc2NCc2ccncc2)ccc1C(F)(F)F [Example 1032, N-(3-((2-((Methylsulfonyl)amino)ethyl)oxy)-4-(trifluoromethyl)phenyl)-2-((4-pyridinylmethyl)amino)-3-pyridinecarboxamide] | < 0.05 µM
14 | O=C(Nc1cccc(C(F)(F)F)c1)c1cccnc1NCc1ccc2ncccc2c1 [Example 169, {2-[(6-Quinolylmethyl)amino](3-pyridyl)}-N-[3-(trifluoromethyl)phenyl]carboxamide] | < 0.05 µM
15 | O=C(Nc1cc(O)cc(C(F)(F)F)c1)c1cccnc1NCc1ccncc1 [Example 978, N-(3-Hydroxy-5-trifluoromethyl-phenyl)-2-[(pyridin-4-ylmethyl)-amino]-nicotinamide] | < 0.05 µM
16 | CNc1nccc(CNc2ncccc2C(=O)Nc2cc(NS(C)(=O)=O)cc(C(F)(F)F)c2)n1 [Example 1093, 2-(((2-(methylamino)-4-pyrimidinyl)methyl)amino)-N-(3-((methylsulfonyl)amino)-5-(trifluoromethyl)phenyl)-3-pyridinecarboxamide] | < 0.05 µM
17 | CNc1nccc(CNc2ncccc2C(=O)Nc2cc(O[C@@H]3CCOC3)cc(C(F)(F)F)c2)n1 [Example 1084, 2-(((2-(methylamino)-4-pyrimidinyl)methyl)amino)-N-(3-((3R)-tetrahydro-3-furanyloxy)-5-(trifluoromethyl)phenyl)-3-pyridinecarboxamide] | < 0.05 µM
18 | CNc1cc(CNc2ncccc2C(=O)Nc2cc(O[C@@H]3CCOC3)cc(C(F)(F)F)c2)ccn1 [Example 1083, 2-(((2-(methylamino)-4-pyridinyl)methyl)amino)-N-(3-((3R)-tetrahydro-3-furanyloxy)-5-(trifluoromethyl)phenyl)-3-pyridinecarboxamide] | < 0.05 µM
19 | CNc1nccc(CNc2ncccc2C(=O)Nc2ccc3c(c2)NCCC3(C)C)n1 [Example 1112, N-(4,4-Dimethyl-1,2,3,4-tetrahydro-quinolin-7-yl)-2-[(2-methylamino-pyrimidin-4-ylmethyl)-amino]-nicotinamide] | < 0.05 µM
20 | CC(C)(C)c1ccc(NC(=O)c2cccnc2NCc2ccnc(OCCCN3CCOCC3)c2)cc1 [Example 904, N-(4-tert-Butyl-phenyl)-2-{[2-(3-morpholin-4-yl-propoxy)-pyridin-4-ylmethyl]-amino}-nicotinamide] | < 0.05 µM
21 | CN1CC(C)(C)c2ccc(NC(=O)c3cccnc3NCc3ccncc3)cc21 [Example 1184, 2-[(Pyridin-4-ylmethyl)-amino]-N-(1,3,3-trimethyl-2,3-dihydro-1H-indol-6-yl)-nicotinamide] | < 0.05 µM
22 | CN(C)CCOCCOc1cc(CNc2ncccc2C(=O)Nc2ccc(C(C)(C)C)cc2)ccn1 [Example 151, (2-{[(2-{2-[2-(Dimethylamino)ethoxy]ethoxy}(4-pyridyl))methyl]amino}(3-pyridyl))-N-[4-(tert-butyl)phenyl]carboxamide] | < 0.05 µM
23 | O=C(Nc1cccc(C(OC[C@@H]2CCCN2)(C(F)(F)F)C(F)(F)F)c1)c1cccnc1NCc1ccncc1 [Example 1138, 2-[(Pyridin-4-ylmethyl)-amino]-N-{3-[2,2,2-trifluoro-1-(pyrrolidin-2-ylmethoxy)-1-trifluoromethyl-ethyl]-phenyl}-nicotinamide] | < 0.05 µM
24 | O=C(Nc1ccc(Cl)cc1)c1ncccc1NCc1ccc2ncccc2c1 [Example 7, N-(4-Chlorophenyl){3-[(6-quinolylmethyl)amino](2-pyridyl)}carboxamide] | < 0.05 µM
25 | CC(C)c1ccc(NC(=O)c2cccnc2NCc2ccnc3ccccc23)cc1 [Example 167, N-[4-(Isopropyl)phenyl]{2-[(4-quinolylmethyl)amino](3-pyridyl)}carboxamide] | < 0.05 µM
